Reference: PubChem BioAssay AID179 (DTP/NCI, 2004)
Activity calls are given as the source filed them.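 Rule for the calls: active = compounds giving half or more protection of infected cells from virus-caused growth loss, again on retest; inactive = the rest.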

System: CEM cells HIV-1 protection, formazan growth assay
Assay: NCI AIDS Antiviral Assay
Details: for IC50: measured here: growth of uninfected CEM cells
How it was run: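 Five concentrations of each compound were applied to infected and uninfected human CEM cells. Protection from HIV-1 was judged from growth measured with a soluble formazan assay.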

Row | Structure (SMILES) | EC50 [µM] | IC50 [µM] | outcome
1 | COc1csc([C@H]2CCC3[C@@H]4CC=C5C[C@@H](OC(=O)CCC(=O)O)CC[C@]5(C)C4CC[C@@]32C)n1 (some centres undefined) | > 51.3 | 32.4 | –
2 | CC(=O)c1cccc(NC(=O)C(=O)C(c2cnc3ccc([N+](=O)[O-])cc3n2)[N+](=O)[O-])c1 (centres undefined) | > 117 | > 117 | –
3 | COC(=O)[C@@H]1CCCCC[C@H]2C(CO)=C(C)C(=O)C12 (some centres undefined) | > 200 | > 200 | –
4 | Nc1c(Cl)ncnc1NCC1(CO)CCC1 | > 200 | 158 | –
5 | Cc1cc2c(=O)cc(-c3ccncc3)oc2c(C(N)=O)c1C | > 151 | 70.8 | –
6 | O=C(Nc1c(NCC(O)C(O)C(O)CO)[nH]c(=O)[nH]c1=O)c1ccc(S(=O)(=O)F)cc1 (centres undefined) | > 200 | 117 | –
7 | COC(=O)c1cc(C#N)[nH]c1-c1ccc(C)s1 | > 200 | 35.5 | –
8 | CC(C)N1CSC(=S)NCCNC(=S)SC1 | > 200 | 95.5 | –
9 | O=c1oc2ccccc2c(O)c1C(c1ccc2ccccc2c1)c1c(O)c2ccccc2oc1=O | > 200 | 38.9 | –
10 | CCOC(=O)C(CC(C(=O)OCC)C(=O)OCC)C(=O)OCC | – | – | inactive
11 | O=C([N-]/N=C/c1ccccc1)c1ccccc1[O-].[OH3+].[Zn+2] | 162 | 166 | –
12 | CCCCc1ccc(C#CC#Cc2ccc(CCCC)s2)s1 | > 200 | > 200 | –
13 | CC(=O)NC1C(OCc2ccccc2)OC(COC(=O)CCCCCCCCCCNC(=O)c2cccc3c(=O)c4ccccc4[nH]c23)C(O)C1OC(C)C(=O)NC(C)C(=O)NC(CCC(N)=O)C(N)=O (centres undefined) | > 7.41 | > 7.41 | –
14 | O=C(c1ccncc1)n1nc(-c2ccccc2)c(N=Nc2ccccc2[N+](=O)[O-])c1-c1ccccc1 | > 39.8 | > 39.8 | –
15 | Cn1c(=O)nc2n(-c3cc(C(F)(F)F)cc(C(F)(F)F)c3)c3ccccc3nc-2c1=O | – | – | inactive
16 | CCOC(=O)N1C/C(=C\c2ccccc2)C(=O)/C(=C/c2ccccc2)C1 | > 100 | 1.82 | –
17 | CSCCC(NC(=O)OCc1ccccc1)NC(=O)OCc1ccccc1 | > 200 | > 200 | –
18 | Cc1cc(=O)n2c(nc3cc([N+](=O)[O-])ccc32)s1 | > 200 | 186 | –
19 | O=C1c2cc([N+](=O)[O-])cnc2S(=O)(=O)N1c1ccc(Br)cc1 | > 200 | 95.5 | –
20 | O=c1oc2ccc(Br)cc2cc1-n1nnc2cc([N+](=O)[O-])ccc21 | > 17.4 | > 17.4 | –
21 | Nc1ccc(C(=O)N/C(=C\c2cccc([N+](=O)[O-])c2)c2nc3[nH]c(=S)[nH]c(=O)c3[nH]2)cc1 | – | – | inactive
22 | Cc1nn2c(=O)[nH]cnc2c1Cl | > 229 | > 229 | –

Row | Structure (SMILES) | EC50 [µM] | IC50 [µM] | outcome
23 | CC1=NS(=O)(=O)NC(C)(C)C1 | > 200 | > 200 | –
24 | CC1=C(C(=O)CC(=O)C(=O)Nc2ccccc2C(F)(F)F)Sc2ccccc2N1 | – | – | inactive
25 | O=[N+]([O-])c1cc([N+](=O)[O-])c2no[n+]([O-])c2c1Nc1ccccc1 | > 56.2 | > 56.2 | –
26 | O=C1CN(c2cccc(C(F)(F)F)c2)C(=O)CN1NCNN1CC(=O)N(c2cccc(C(F)(F)F)c2)CC1=O | > 200 | > 200 | –
27 | CC(C)(Oc1ccc2c(=O)cc(-c3ccccc3)oc2c1)C(=O)N1CCN(c2ccccc2)CC1 | > 200 | 20.9 | –
28 | COc1c(C)c(C/C=C(\C)CCCCO)c(OC)c(OC)c1OC | > 200 | 26.3 | –
29 | COc1ccc2cc1-c1cc(ccc1O)CC1NCCc3cc4c(cc31)Oc1c(c(OC)c(OC)c3c1[C@H](C2)N(C)CC3)O4 (some centres undefined) | > 6.03 | > 6.03 | –
30 | [Au+].c1c[n-]cn1.c1ccc([PH+](c2ccccc2)c2ccccc2)cc1 | > 13.8 | 6.31 | –
31 | COc1ccc2nc3cc(Cl)ccc3c(Sc3ccc(N)cc3)c2c1 | > 14.1 | 3.31 | –
32 | O=C1NC(=O)C2C1C1C=C3c4ccccc4N(c4ccccc4)C32[C@H]2C(=O)NC(=O)[C@@H]12 (some centres undefined) | > 316 | 112 | –
33 | C/C(=N/NC(=O)c1ccccc1Nc1ccccc1C(=O)N/N=C(\C)c1ccc(C)cc1)c1ccc(C)cc1 | > 20 | 8.91 | –
34 | CCCN(CCCN)/[N+]([O-])=N\O | > 8910 | 1580 | –
35 | COC(=O)C(C(=O)C(=O)Nc1nc2ccc([N+](=O)[O-])cc2s1)c1nc2ccc(Cl)cc2[nH]c1=O (centres undefined) | > 51.3 | > 51.3 | –
36 | CCC12CC(c3ccccc3)C(C(=O)N1)C(=O)N2 (centres undefined) | > 200 | > 200 | –
37 | Clc1ccccc1CSc1cnnc2ccccc12 | > 93.3 | 67.6 | –
38 | O=S(=O)(O)c1cc(N/N=C/c2cc(S(=O)(=O)O)c3cccnc3c2O)ccc1/C=C/c1ccc(N/N=C/c2cc(S(=O)(=O)O)c3cccnc3c2O)cc1S(=O)(=O)O | 13.5 | 129 | –
39 | COC(F)(F)C12CC3CC(CC(C3)C1)C2 | – | – | inactive
40 | CC1(C)N([O-])[N+](=O)C1(C)Br (centres undefined) | > 200 | > 200 | –
41 | Cn1c([C@H](C#N)c2ncccc2[N+](=O)[O-])nc2ccccc21 | > 200 | 110 | –
42 | CCC(=O)ONC(=O)Cn1ccc([N+](=O)[O-])n1 | > 200 | 66.1 | –
43 | S=C1CC(c2ccccc2)Sc2ccccc2N1 (centres undefined) | > 200 | 95.5 | –
44 | Cc1ccc(S(=O)(=O)Nn2c(O)c(C#N)c(-c3ccc(Cl)cc3)c(C#N)c2=O)cc1 | > 200 | > 200 | –

Row | Structure (SMILES) | EC50 [µM] | IC50 [µM] | outcome
45 | COc1cc2c(cc1OC)C(C#N)(Cc1ccccc1)N(C(=O)c1ccccc1)C=C2 (centres undefined) | – | – | inactive
46 | Cc1cn(C2CC(ON)C(CO)O2)c(=O)[nH]c1=O (centres undefined) | > 200 | > 200 | –
47 | Cc1cccc(C)c1NC(=O)CCCC(=O)C1CC(=O)CCC1=O (centres undefined) | > 550 | > 550 | –
48 | N#Cc1c(-c2ccccc2)cc(-c2ccc(N)cc2)[nH]c1=O | > 18.2 | > 18.2 | –
49 | CC(=O)Nc1ccc2c(C(=O)O)c(C)c(=O)[nH]c2n1 | > 200 | 112 | –
50 | N#CC(c1ccccc1)N(CCc1ccccc1)C(=O)c1ccccc1 (centres undefined) | > 126 | > 126 | –
51 | CC12CC3(C)SC(C)(CC(C)(S1)S2)S3 | – | – | inactive
52 | CCOC(=O)c1nc2ccccc2nc1Oc1ccc(F)cc1 | > 200 | > 200 | –
53 | COC1OC2COc3ccccc3OC2C(NC(N)=S)C1OC (centres undefined) | > 132 | 41.7 | –
54 | Oc1ccccc1C=Nc1ccccc1SSc1ccccc1N=Cc1ccccc1O | > 200 | 8.13 | –
55 | CN1OC(C#N)(C#N)C(C#N)(C#N)C1c1ccccc1 (centres undefined) | > 200 | > 200 | –
56 | O=S1(=O)CC2C3CC(Oc4ccccc4)C(C3)C2C1 (centres undefined) | > 107 | > 107 | –
57 | c1ccc(-c2cc(-c3cc(-c4ccccc4)n(-c4ccccc4)n3)nn2-c2ccccc2)cc1 | > 100 | > 100 | –
58 | Cc1ccccc1C1N=C2Oc3ccccc3C=C2C(=O)N1 (centres undefined) | > 100 | 1.41 | –
59 | Clc1ccc(-c2nn3c(CCCCCCCCc4nnc5sc(-c6ccc(Cl)cc6)nn45)nnc3s2)cc1 | > 200 | 19.1 | –
60 | CCOP(=O)(OCC)/C(=C\n1ccc(=O)[nH]c1=S)C(=O)OC | > 200 | > 200 | –
61 | CCC(C)[C@H](NC(=O)c1ccccc1S)C(=O)O (some centres undefined) | 8.51 | 110 | –
62 | CC(=O)OCC1OC(N=[N+]=[N-])C(OC(C)=O)C(OC(C)=O)C1OC1OC(COC(C)=O)C(OC(C)=O)C(OC(C)=O)C1OC(C)=O (centres undefined) | > 53.7 | > 53.7 | –
63 | O=C(O)c1ccc(C(=O)c2ccccc2C(=O)O)cc1 | > 200 | > 200 | –
64 | CCOc1ccc(N=c2ssc(SC)c2-c2ccccc2)cc1 | > 200 | 61.7 | –
65 | CCCCOC(=O)c1ccc(NC(=O)C(C)N(CC)CC)cc1 (centres undefined) | > 200 | 36.3 | –
66 | O=C1CN=C(c2ccccn2)c2cc(Cl)ccc2N1 | > 479 | 72.4 | –

Row | Structure (SMILES) | EC50 [µM] | IC50 [µM] | outcome
67 | COc1cc2c(cc1OC)CN1CCc3cc(OC)c(OC)cc3[C@@H]1C2 | > 200 | 145 | –
68 | CC(=O)N1C/C(=C\c2ccccc2)C(=O)/C(=C/c2ccccc2)C1 | – | – | inactive
69 | N#CC(C(=O)CCCC(=O)Nc1ccccc1[N+](=O)[O-])c1c(Cl)cccc1Cl (centres undefined) | > 309 | > 309 | –
70 | CC1CC(C)(C)NC2(CCCC2)N1 (centres undefined) | > 200 | > 200 | –
71 | CCOC(=O)NN(C(=O)OCC)C(C(=O)C1CCCCC1)N(NC(=O)OCC)C(=O)OCC | – | – | inactive
72 | CCOC(=O)/C=C(\N=P(c1ccccc1)(c1ccccc1)c1ccccc1)C(F)(F)C(F)(F)C(F)(F)C(F)(F)C(F)(F)F | > 200 | > 200 | –
73 | S=c1nc[nH]c2c1ccc1[nH]cnc12 | > 18.6 | > 18.6 | –
74 | Nc1nc(=O)[nH]c(N)c1N=O | > 200 | > 200 | –
75 | O=C1c2ccccc2-c2nnc3c(c21)Cc1ccccc1C3 | > 200 | > 200 | –
76 | COC(=O)c1cc(=O)c2c(ccc3oc(=O)ccc32)[nH]1 | > 200 | 170 | –
77 | O=P1(O)c2ccccc2-c2ccccc21 | > 200 | > 200 | –
78 | Fc1ccc2c(c1)SC1Oc3ccccc3-c3c1c-2nn3-c1ccccc1 (centres undefined) | > 19.5 | > 19.5 | –
79 | O=C1NC(=O)/C(=C\c2ccncc2)N1 | > 200 | > 200 | –
80 | COc1ccc(CC[N+](C)(C)C)cc1 | > 200 | > 200 | –
81 | C=C(/C=C/C=C(\CO)CCC=C(C)C)[C@H]1CCC2([C@H](CCCO)/C(=C(/C)C=O)CC[C@]2(C)O)[C@H]1O (some centres undefined) | > 263 | 195 | –
82 | O=c1[nH]cnc2c1ncn2C1CCC2(CO)CC12 (centres undefined) | > 50.1 | > 50.1 | –
83 | CC1CC[C@@]2(O)C(CCCC2(C)C)[C@]1(C)CCc1ccoc1 (some centres undefined) | – | – | inactive
84 | CC(=O)O/N=C/c1ncccc1OC(C)=O | > 1120 | > 1120 | –
85 | C#CC1(O)CCC2[C@@H]3CCc4cc(Oc5nc(F)nc(-c6c7ccccc7c(SCC)n6CCC)n5)ccc4C3CC[C@@]21C (some centres undefined) | > 6.17 | > 6.17 | –
86 | O=C(O)CC[C@@]1(C(=O)O)NC(C(=O)O)Cc2[nH]cnc21 (some centres undefined) | > 437 | > 437 | –
87 | CC1(CO)CCCC1NCCNC1CCCC1(C)CO (centres undefined) | > 182 | 107 | –
